Calls of active or inactive are those of the source. The rule behind the calls is not given here.
Columns and labels:
[1] = test system: MCF7; experiment: Cytotoxicity against human MCF7 cells after 48 hrs by MTT assay; type: functional, cell-based; conditions: MCF7, 48 h
[2] = test system: HL-60; experiment: Cytotoxicity against human HL60 cells after 48 hrs by MTT assay; type: functional, cell-based; conditions: HL-60, 48 h
[3] = test system: SiHa; experiment: Cytotoxicity against human SiHa cells after 48 hrs by MTT assay; type: functional, cell-based
[4] = test system: HeLa; experiment: Cytotoxicity against human HeLa cells after 48 hrs by MTT assay; type: functional, cell-based
[5] = test system: BeWo; experiment: Cytotoxicity against human Bewo cells after 48 hrs by MTT assay; type: functional, cell-based
[6] = test system: A549; experiment: Cytotoxicity against human A549 cells after 48 hrs by MTT assay; type: functional, cell-based; conditions: A549, 48 h
[7] = test system: Ishikawa; experiment: Cytotoxicity against human Ishikawa cells after 48 hrs by MTT assay; type: functional, cell-based
[8] = Cytotoxicity against human BGC823 cells after 48 hrs by MTT assay; type: functional, cell-based; conditions: BGC-823, 48 h
[9] = Cytotoxicity against human NCI-460 cells after 48 hrs by MTT assay; type: functional, cell-based; conditions: NCI-460, 48 h
[10] = Cytotoxicity against human Bel7402 cells after 48 hrs by MTT assay; type: functional, cell-based; conditions: Bel-7402, 48 h
[11] = test system: CCRF S-180; experiment: Antitumor activity against mouse S180 cells allografted in ICR mouse assessed as tumor growth inhibition at 200 mg/kg, ig qd administered for 6 days relative to vehicle-treated control; type: functional; conditions: CCRF S-180, po, 144 h, route intragastric, read-out: TGI
[12] = test system: Mus musculus; experiment: Toxicity in ICR mouse allografted with mouse S180 cells assessed as body weight loss at 200 mg/kg, ig qd administered for 6 days relative to vehicle-treated control; type: organism-based, CCRF S-180; set-up: dose 200 mg/kg, route intragastric; conditions: in vivo, po, 144 h
[13] = Cytotoxicity against human SKBR3 cells after 48 hrs by MTT assay; type: functional, cell-based; conditions: SK-BR-3, 48 h
[14] = Cytotoxicity against human JeKo1 cells after 48 hrs by MTT assay; type: functional, cell-based; conditions: JeKo-1, 48 h
[15] = test system: HUVEC; experiment: Antiangiogenic activity against HUVEC assessed as inhibition of cell migration at 10 ug/ml after 24 hrs by wound healing assay relative to control; type: functional; conditions: Homo sapiens
[16] = test system: HUVEC; experiment: Antiangiogenic activity against HUVEC assessed as inhibition of cell migration at 2.5 ug/ml after 24 hrs by wound healing assay relative to control; type: functional; conditions: Homo sapiens
[17] = test system: HUVEC; experiment: Antiangiogenic activity against HUVEC assessed as inhibition of tube formation at 12.5 ug/ml after 24 hrs relative to control; type: functional, cell-based; conditions: Homo sapiens
[18] = test system: HUVEC; experiment: Cytotoxicity against HUVEC assessed as mitochondrial metabolism after 48 hrs by MTT assay; type: cell-based, Homo sapiens; conditions: for IC50: Homo sapiens, HUVEC; for Activity: human, huvec
[19] = test system: CCRF S-180; experiment: Antitumor activity against mouse S180 cells allografted in ICR mouse assessed as tumor growth inhibition at 30 mg/kg, ig qd administered for 6 days relative to vehicle-treated control; type: functional; conditions: CCRF S-180, po, 144 h, route intragastric, read-out: TGI

SMILES	IC50 [1]	IC50 [2]	IC50 [3]	IC50 [4]	IC50 [5]	IC50 [6]	IC50 [7]	IC50 [8]	IC50 [9]	IC50 [10]	inhibition in vivo at 200 mg/kg [11]	Activity [12]	IC50 [13]	IC50 [14]	inhibition at 10 µg/mL [15]	inhibition at 2.5 µg/mL [16]	Activity [17]	IC50 [18]	Activity [18]	inhibition in vivo at 30 mg/kg [19]
CCCCNC(=O)Cc1cccc2c(=O)c3ccc(C)c(C)c3oc12	43.8 µM	44.7 µM	> 100 µM	> 100 µM	> 100 µM	46.9 µM	> 100 µM	–	–	–	–	–	–	–	–	–	–	–	–	–
CCOC(=O)c1ccc(NC(=O)Cc2cccc3c(=O)c4ccc(C)c(C)c4oc23)cc1	> 100 µM	90.9 µM	> 100 µM	> 100 µM	45.5 µM	39.6 µM	> 100 µM	> 100 µM	> 100 µM	> 100 µM	–	–	–	–	–	–	–	–	–	–
Cc1ccc2c(=O)c3cccc(CC(=O)Nc4ccc(F)c(Cl)c4)c3oc2c1C	> 100 µM	76.1 µM	32.4 µM	94.2 µM	> 100 µM	25.8 µM	> 100 µM	–	–	–	–	–	–	–	–	–	–	–	–	–
CCOC(=O)CNC(=O)Cc1cccc2c(=O)c3ccc(C)c(C)c3oc12	46.4 µM	> 100 µM	> 100 µM	> 100 µM	> 100 µM	42.9 µM	61.9 µM	–	–	–	–	–	–	–	–	–	–	–	–	–
CCCNC(=O)Cc1cccc2c(=O)c3ccc(C)c(C)c3oc12	> 100 µM	> 100 µM	92 µM	> 100 µM	> 100 µM	28.9 µM	> 100 µM	> 100 µM	> 100 µM	> 100 µM	25.6%	10.32%	–	–	–	–	–	–	–	–
CCC/C=C/C(=O)NNC(=O)Cc1cccc2c(=O)c3ccc(C)c(C)c3oc12	–	–	–	–	–	–	–	–	–	–	–	–	> 10 µg/mL	> 10 µg/mL	–	–	–	–	–	–
COc1c(O)ccc(/C=N/NC(=O)Cc2cccc3c(=O)c4ccc(C)c(C)c4oc23)c1[N+](=O)[O-]	–	–	–	–	–	> 100 µM	–	–	–	–	–	–	–	–	–	–	–	–	–	–
Cc1ccc2c(=O)c3cccc(CC(=O)Nc4ccc([N+](=O)[O-])c(C(F)(F)F)c4)c3oc2c1C	> 100 µM	93.8 µM	63.2 µM	> 100 µM	> 100 µM	> 100 µM	> 100 µM	–	–	–	–	–	–	–	–	–	–	–	–	–
Cc1ccc2c(=O)c3cccc(CC(=O)Nc4ccc(Cl)c(Cl)c4)c3oc2c1C	> 100 µM	42.4 µM	96.1 µM	18.7 µM	> 100 µM	92 µM	> 100 µM	–	–	–	29.6%	12.87%	–	–	89.7%	67.6%	Active	6.4 µM	Dose-dependent effect	–
COc1cccc(/C=N/NC(=O)Cc2cccc3c(=O)c4ccc(C)c(C)c4oc23)c1	> 100 µM	> 100 µM	> 100 µM	> 100 µM	84.9 µM	50.7 µM	> 100 µM	> 100 µM	> 100 µM	> 100 µM	–	–	–	–	–	–	–	–	–	–
COc1ccc(/C=N/NC(=O)Cc2cccc3c(=O)c4ccc(C)c(C)c4oc23)cc1O	> 100 µM	> 100 µM	> 100 µM	> 100 µM	> 100 µM	54.9 µM	> 100 µM	> 100 µM	> 100 µM	> 100 µM	–	–	–	–	–	–	–	–	–	–
COc1ccc(/C=C\c2cc(OC)c(OC)c(OC)c2)cc1O [COMBRETASTATIN A4]	25.5 µM	< 0.03 µM	> 100 µM	14.8 µM	12.7 µM	–	20.1 µM	–	–	–	–	–	–	–	–	–	–	–	–	–
Cc1ccc2c(=O)c3cccc(CC(=O)Nc4ccccc4)c3oc2c1C	> 100 µM	4.59 µM	> 100 µM	> 100 µM	> 100 µM	77.6 µM	> 100 µM	> 100 µM	> 100 µM	> 100 µM	18.4%	10.2%	–	–	–	–	–	> 20 µM	–	–
Cc1ccc2c(=O)c3cccc(CC(=O)Nc4ccc(Cl)cc4)c3oc2c1C	> 100 µM	67.6 µM	46.6 µM	> 100 µM	32 µM	9.39 µM	> 100 µM	–	–	–	27.8%	12.37%	–	–	65.8%	45.6%	Active	6.87 µM	Dose-dependent effect	–
Cc1ccc2c(=O)c3cccc(CC(=O)N/N=C/c4cc(Cl)ccc4O)c3oc2c1C	> 100 µM	20.8 µM	> 100 µM	36.2 µM	76.4 µM	11.5 µM	68.4 µM	> 100 µM	> 100 µM	> 100 µM	–	–	> 10 µg/mL	> 10 µg/mL	–	–	–	> 20 µM	–	–
Cc1ccc2c(=O)c3cccc(CC(=O)N/N=C/c4ccccc4O)c3oc2c1C	> 100 µM	52.8 µM	> 100 µM	> 100 µM	67.2 µM	21.4 µM	> 100 µM	> 100 µM	> 100 µM	> 100 µM	–	–	> 10 µg/mL	> 10 µg/mL	–	–	–	–	–	–

SMILES	IC50 [1]	IC50 [2]	IC50 [3]	IC50 [4]	IC50 [5]	IC50 [6]	IC50 [7]	IC50 [8]	IC50 [9]	IC50 [10]	inhibition in vivo at 200 mg/kg [11]	Activity [12]	IC50 [13]	IC50 [14]	inhibition at 10 µg/mL [15]	inhibition at 2.5 µg/mL [16]	Activity [17]	IC50 [18]	Activity [18]	inhibition in vivo at 30 mg/kg [19]
Cc1ccc2c(=O)c3cccc(CC(=O)O)c3oc2c1C [VADIMEZAN]	> 100 µM	> 100 µM	> 100 µM	> 100 µM	> 100 µM	> 100 µM	> 100 µM	> 100 µM	> 100 µM	> 100 µM	–	–	–	–	–	–	–	> 20 µM	–	76.2%
CCOC(=O)CCNC(=O)Cc1cccc2c(=O)c3ccc(C)c(C)c3oc12	40.6 µM	79.9 µM	98 µM	> 100 µM	26.2 µM	35 µM	> 100 µM	76.4 µM	> 100 µM	> 100 µM	–	–	–	–	–	–	–	–	–	–
Cc1ccc2c(=O)c3cccc(CC(=O)Nc4ccc(Cl)cn4)c3oc2c1C	95.9 µM	80.9 µM	> 100 µM	> 100 µM	> 100 µM	> 100 µM	> 100 µM	–	–	–	–	–	–	–	–	–	–	–	–	–
Cc1ccc2c(=O)c3cccc(CC(=O)N/N=C/c4ccc(O)c(O)c4)c3oc2c1C	–	–	–	–	–	> 100 µM	–	–	–	–	–	–	–	–	–	–	–	–	–	–
C/C=C/CC(=O)NNC(=O)Cc1cccc2c(=O)c3ccc(C)c(C)c3oc12	–	–	–	–	–	–	–	–	–	–	–	–	> 10 µg/mL	> 10 µg/mL	–	–	–	–	–	–
CC(C)=CCC(=O)NNC(=O)Cc1cccc2c(=O)c3ccc(C)c(C)c3oc12	–	–	–	–	–	–	–	–	–	–	–	–	> 10 µg/mL	> 10 µg/mL	–	–	–	–	–	–
CCOC(=O)Cc1cccc2c(=O)c3ccc(C)c(C)c3oc12	–	–	–	–	–	–	–	–	–	–	4.04%	8.5%	–	–	–	–	–	–	–	–
Cc1ccc2c(=O)c3cccc(CC(=O)N/N=C/c4ccc(O)cc4)c3oc2c1C	> 100 µM	> 100 µM	> 100 µM	> 100 µM	73.7 µM	35.9 µM	> 100 µM	–	–	–	–	–	–	–	–	–	–	–	–	–
Cc1ccc2c(=O)c3cccc(CC(=O)Nc4cccc(Cl)c4)c3oc2c1C	> 100 µM	91.2 µM	36.1 µM	25.4 µM	66.5 µM	10.8 µM	> 100 µM	–	–	–	22.4%	10.7%	–	–	58.2%	32.6%	–	11.1 µM	Dose-dependent effect	–
CCCCCC(=O)NNC(=O)Cc1cccc2c(=O)c3ccc(C)c(C)c3oc12	–	–	–	–	–	–	–	–	–	–	–	–	> 10 µg/mL	> 10 µg/mL	–	–	–	–	–	–
COc1ccc(/C=N/NC(=O)Cc2cccc3c(=O)c4ccc(C)c(C)c4oc23)cc1	> 100 µM	> 100 µM	> 100 µM	> 100 µM	> 100 µM	> 100 µM	91.2 µM	–	–	–	–	–	–	–	–	–	–	–	–	–
COc1cc(/C=N/NC(=O)Cc2cccc3c(=O)c4ccc(C)c(C)c4oc23)cc(OC)c1OC	> 100 µM	> 100 µM	> 100 µM	> 100 µM	> 100 µM	15.7 µM	> 100 µM	–	–	–	–	–	–	–	–	–	–	–	–	–
Cc1ccc2c(=O)c3cccc(CC(=O)N/N=C/c4ccc5c(c4)OCO5)c3oc2c1C	> 100 µM	> 100 µM	> 100 µM	> 100 µM	> 100 µM	86.8 µM	> 100 µM	> 100 µM	> 100 µM	> 100 µM	–	–	–	–	–	–	–	–	–	–
COc1cc(/C=N/NC(=O)Cc2cccc3c(=O)c4ccc(C)c(C)c4oc23)ccc1O	–	–	–	–	–	> 100 µM	–	–	–	–	–	–	–	–	–	–	–	–	–	–
C#CCOC(=O)Cc1cccc2c(=O)c3ccc(C)c(C)c3oc12	> 100 µM	> 100 µM	> 100 µM	> 100 µM	> 100 µM	> 100 µM	> 100 µM	81.5 µM	> 100 µM	> 100 µM	–	–	> 10 µg/mL	> 10 µg/mL	–	–	–	–	–	–

Reference: ChEMBL document CHEMBL3132846 (Medchemcomm, 2014)
